The source made the active and inactive calls. No cut-off for these calls is given here.
What was measured:
[1] = molecular target: T1, Delta-type opioid receptor (Homo sapiens, UniProt P41143); experiment: Antagonist activity at human delta opioid receptor expressed in CHO cell membrane assessed as inhibition of SNC80 induced [35S]GTPgammaS binding; format: functional, cell membranes
Mu-type opioid receptor [2] = molecular target: T2, Mu-type opioid receptor (Homo sapiens, UniProt P35372); experiment: Antagonist activity at human mu opioid receptor expressed in CHO cell membrane assessed as inhibition of DAMGO induced [35S]GTP-gamma-S binding; format: functional, cell membranes
T2 sequence (P35372 whole entry): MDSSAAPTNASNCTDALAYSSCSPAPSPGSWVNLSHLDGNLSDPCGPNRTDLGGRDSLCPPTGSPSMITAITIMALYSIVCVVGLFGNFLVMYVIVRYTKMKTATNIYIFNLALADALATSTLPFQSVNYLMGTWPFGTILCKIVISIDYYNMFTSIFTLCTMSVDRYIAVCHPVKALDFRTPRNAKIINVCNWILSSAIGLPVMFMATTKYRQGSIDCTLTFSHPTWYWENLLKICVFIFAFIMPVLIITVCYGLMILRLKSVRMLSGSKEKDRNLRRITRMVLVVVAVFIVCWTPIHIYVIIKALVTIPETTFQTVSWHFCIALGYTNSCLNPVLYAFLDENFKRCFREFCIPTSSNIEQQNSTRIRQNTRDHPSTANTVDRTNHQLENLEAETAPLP

[3] = molecular target: T3, Kappa-type opioid receptor (Homo sapiens, UniProt P41145); experiment: biochemical; format: cell-based, CHO
T3 sequence (P41145 whole entry): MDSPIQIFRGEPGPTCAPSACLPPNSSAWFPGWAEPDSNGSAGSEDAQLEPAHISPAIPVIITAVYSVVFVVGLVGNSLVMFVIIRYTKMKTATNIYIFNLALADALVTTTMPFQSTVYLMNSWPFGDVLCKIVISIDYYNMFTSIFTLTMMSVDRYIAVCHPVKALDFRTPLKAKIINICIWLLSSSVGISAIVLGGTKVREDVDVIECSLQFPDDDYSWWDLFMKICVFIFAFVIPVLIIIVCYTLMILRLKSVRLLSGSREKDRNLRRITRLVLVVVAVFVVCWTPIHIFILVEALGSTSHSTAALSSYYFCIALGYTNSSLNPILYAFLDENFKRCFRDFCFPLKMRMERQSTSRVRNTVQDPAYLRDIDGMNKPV
Description: Displacement of [3H]U-69593 from kappa opioid receptor expressed in CHO cells

[4] = molecular target: T1, Delta-type opioid receptor; experiment: Agonist activity at human delta opioid receptor expressed in CHO cell membrane by [35S]GTP-gamma-S binding assay; format: functional, cell membranes
Mu-type opioid receptor [5] = molecular target: T2, Mu-type opioid receptor; experiment: Displacement of [3H]DAMGO from mu opioid receptor expressed in CHO cells; format: cell-based
[6] = molecular target: T3, Kappa-type opioid receptor; experiment: Antagonist activity at human kappa opioid receptor expressed in CHO cell membrane assessed as inhibition of U50,488 induced [35S]GTPgammaS binding; format: functional, cell membranes
[7] = molecular target: T1, Delta-type opioid receptor; experiment: Displacement of [3H]naltrindole from delta opioid receptor expressed in CHO cells; format: cell-based
Mu-type opioid receptor [8] = molecular target: T2, Mu-type opioid receptor; experiment: Agonist activity at human mu opioid receptor expressed in CHO cell membrane by [35S]GTPgammaS binding assay; format: functional, cell membranes
[9] = molecular target: T3, Kappa-type opioid receptor; experiment: Agonist activity at human kappa opioid receptor expressed in CHO cell membrane by [35S]GTP-gamma-S binding assay; format: functional, cell membranes
Mu-type opioid receptor [10] = molecular target: T2, Mu-type opioid receptor; experiment: Antagonist activity at human mu opioid receptor expressed in CHO cell membrane assessed as inhibition of DAMGO induced [35S]GTP-gamma-S binding at 10 uM; format: functional, cell membranes

T1 sequence (P41143 whole entry): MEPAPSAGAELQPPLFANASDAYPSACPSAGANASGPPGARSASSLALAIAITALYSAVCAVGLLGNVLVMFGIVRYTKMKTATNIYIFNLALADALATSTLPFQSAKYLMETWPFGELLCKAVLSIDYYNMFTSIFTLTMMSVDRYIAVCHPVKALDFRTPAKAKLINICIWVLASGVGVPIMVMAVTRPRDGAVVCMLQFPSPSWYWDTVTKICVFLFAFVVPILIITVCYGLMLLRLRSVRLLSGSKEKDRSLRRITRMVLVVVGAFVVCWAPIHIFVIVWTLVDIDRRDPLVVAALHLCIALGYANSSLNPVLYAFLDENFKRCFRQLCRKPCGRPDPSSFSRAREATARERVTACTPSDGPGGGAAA

SMILES | Activity [1] | IC50 (Mu-type opioid receptor [2]) [nM] | Imax (Mu-type opioid receptor [2]) [%] | Ki [3] [nM] | EC50 [4] [nM] | Emax [4] [%] | Ki (Mu-type opioid receptor [5]) [nM] | Activity [6] | Ki [7] [nM] | EC50 (Mu-type opioid receptor [8]) [nM] | Emax (Mu-type opioid receptor [8]) [%] | EC50 [9] [nM] | Emax [9] [%] | Activity (Mu-type opioid receptor [2]) | Imax (Mu-type opioid receptor [10]) [%]
C[C@H]1C2Cc3ccc(C(=O)NCCc4cccc(Br)c4)cc3[C@@]1(C)CCN2CC1CC1 | inactive | 230 | 85 | 0.063 | 14 | 85 | 0.35 | inactive | 3.5 | 5.6 | 24 | 4.6 | 110 | – | –
C[C@H]1C2Cc3ccc(C(=O)NCc4ccc5ccccc5c4)cc3[C@@]1(C)CCN2CC1CC1 | – | – | – | 19 | – | – | 1.3 | – | 31 | – | – | – | – | – | –
C[C@H]1C2Cc3ccc(C(=O)NCCc4cccc5ccccc45)cc3[C@@]1(C)CCN2CC1CC1 | – | – | – | 2.4 | – | – | 4.2 | – | 24 | – | – | – | – | – | –
C[C@H]1C2Cc3ccc(C(=O)NCCc4ccc(-c5ccc(Cl)cc5)cc4)cc3[C@@]1(C)CCN2CC1CC1 | inactive | – | – | – | 2 | 45 | – | inactive | – | 2.5 | 31 | 6.4 | 96 | inactive | 71
C[C@H]1C2Cc3ccc(C(=O)NCCc4ccc(-c5ccc(Cl)c(Cl)c5)cc4)cc3[C@@]1(C)CCN2CC1CC1 | – | – | – | 1.1 | – | – | 0.98 | – | 2.5 | – | – | – | – | – | –
COc1ccc(-c2ccc(CCNC(=O)c3ccc4c(c3)[C@@]3(C)CCN(CC5CC5)C(C4)[C@@H]3C)cc2)cc1 | inactive | 24 | 82 | – | 0.68 | 70 | – | inactive | – | 11 | 27 | 1.1 | 98 | – | –
C[C@H]1C2Cc3ccc(C(=O)NCCc4ccc(Br)cc4)cc3[C@@]1(C)CCN2CC1CC1 | inactive | – | – | 0.38 | 20 | 120 | 2.4 | inactive | 2.5 | 16 | 73 | 20 | 110 | inactive | –
C[C@H]1C2Cc3ccc(C(=O)NCCc4ccccc4-c4ccccc4)cc3[C@@]1(C)CCN2CC1CC1 | – | – | – | 2.4 | – | – | 6.7 | – | 21 | 12 | 36 | 42 | 97 | – | 73
C[C@H]1C2Cc3ccc(C(=O)NCCCc4ccc5ccccc5c4)cc3[C@@]1(C)CCN2CC1CC1 | – | 320 | 78 | 0.18 | – | – | 1.9 | inactive | 18 | 24 | 31 | 6.3 | 98 | – | –
C[C@H]1C2Cc3ccc(C(=O)NCCc4cccc(-c5ccccc5)c4)cc3[C@@]1(C)CCN2CC1CC1 | inactive | – | – | – | 18 | 43 | 0.95 | inactive | 5.9 | 6.8 | 41 | 12 | 95 | inactive | 72
C[C@H]1C2Cc3ccc(C(=O)NCc4cccc5ccccc45)cc3[C@@]1(C)CCN2CC1CC1 | – | – | – | 18 | – | – | 2.5 | – | 52 | – | – | – | – | – | –
C[C@H]1C2Cc3ccc(C(=O)NCCc4ccccc4Br)cc3[C@@]1(C)CCN2CC1CC1 | – | – | – | 19 | – | – | 4 | – | 150 | – | – | – | – | – | –
C[C@H]1[C@H]2Cc3ccc(O)cc3[C@@]1(C)CCN2CC1CC1 | – | – | – | 0.07 | – | – | – | – | 2 | – | – | – | – | – | –
C[C@H]1C2Cc3ccc(C(=O)NCCCc4cccc5ccccc45)cc3[C@@]1(C)CCN2CC1CC1 | – | – | – | 1.9 | – | – | 2.4 | – | 18 | – | – | – | – | – | –
C[C@H]1C2Cc3ccc(C(=O)NCCc4ccc5ccccc5c4)cc3[C@@]1(C)CCN2CC1CC1 | – | – | – | 0.2 | – | – | 0.18 | – | 0.9 | – | – | – | – | – | –
